Test results: US9877957B2, “Tetrahydroisoquinoline derivatives useful as inhibitors of diacylglyceride O-acyltransferase 2” (Merck Sharp & Dohme Corp., priority 2014, dated 2018)

target: hDGAT2 (Homo sapiens (Human), UniProt Q96PD7); test: DGAT2 Enzymatic Activity Assay (triolein formation, LC/MS/MS); format: biochemical; conditions: Sf-9 membrane prep expressing hDGAT2; 25 μM diolein, 10 μM oleoyl-CoA; room temperature; read-out: IC50 values for inhibition of DGAT2
How it was run: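 Untagged hDGAT2 in Sf-9 membranes (10 ng/μL) with 25 μM diolein and 10 μM oleoyl-CoA in 100 mM Tris·Cl pH 7.0, 20 mM MgCl2, 5% ethanol at room temperature. Triolein measured by LC/MS/MS against spiked internal standard; IC50 from 4-parameter sigmoidal fit of % inhibition.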

Chain of hDGAT2 (Q96PD7 whole entry): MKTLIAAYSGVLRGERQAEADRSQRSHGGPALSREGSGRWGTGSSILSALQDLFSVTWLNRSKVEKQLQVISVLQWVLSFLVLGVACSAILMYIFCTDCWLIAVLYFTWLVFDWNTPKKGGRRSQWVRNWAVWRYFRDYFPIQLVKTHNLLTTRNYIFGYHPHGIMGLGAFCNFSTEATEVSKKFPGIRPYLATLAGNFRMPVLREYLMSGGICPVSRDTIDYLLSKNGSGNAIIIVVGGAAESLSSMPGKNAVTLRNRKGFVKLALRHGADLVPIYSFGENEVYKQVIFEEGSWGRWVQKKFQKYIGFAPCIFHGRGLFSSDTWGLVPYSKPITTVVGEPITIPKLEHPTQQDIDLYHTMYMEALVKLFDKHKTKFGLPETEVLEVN

SMILES	IC50
Cc1nonc1CNC(=O)c1ccc(-c2cccc(C(F)(F)F)c2)c2c1CN(C(=O)NC(C)(C)C)CC2 [Example 67, N^2-(tert-butyl)-N^8-((4-methyl-1,2,5-oxadiazol-3-yl)methyl)-5-(3-(trifluoromethyl)phenyl)-3,4-dihydroisoquinoline-2,8(1H)-dicarboxamide]	244 nM
Cn1ccnc1CNC(=O)c1ccc(-c2cccc(C(F)(F)F)c2)c2c1CN(C(=O)NC(C)(C)C)CC2 [Example 68, N^2-(tert-butyl)-N^8-((1-methyl-1H-imidazol-2-yl)methyl)-5-(3-(trifluoromethyl)phenyl)-3,4-dihydroisoquinoline-2,8(1H)-dicarboxamide]	474 nM
CC(C)(C)NC(=O)N1CCc2c(-c3cccc(C(F)(F)F)c3)ccc(C(=O)NCCn3cnnc3)c2C1 [Example 71, N^8-(2-(4H-1,2,4-triazol-4-yl)ethyl)-N^2-(tert-butyl)-5-(3-(trifluoromethyl)phenyl)-3,4-dihydroisoquinoline-2,8(1H)-dicarboxamide]	178 nM
CC(NC(=O)c1ccc(-c2cccc(C(F)(F)F)c2)c2c1CN(C(=O)NC(C)(C)C)CC2)c1nncs1 (stereo not shown) [Example 72, N^8-(1-(1,3,4-thiadiazol-2-yl)ethyl)-N^2-(tert-butyl)-5-(3-(trifluoromethyl)phenyl)-3,4-dihydroisoquinoline-2,8(1H)-dicarboxamide]	659 nM
CC(NC(=O)c1ccc(-c2cccc(OC(F)(F)F)c2)c2c1CN(C(=O)NC(C)(C)C)CC2)c1nc(-c2ccccn2)no1 (stereo not shown) [Example 73, N^2-(tert-butyl)-N^8-(1-(3-(pyridin-2-yl)-1,2,4-oxadiazol-5-yl)ethyl)-5-(3-(trifluoromethoxy)phenyl)-3,4-dihydroisoquinoline-2,8(1H)-dicarboxamide]	511 nM
CC(C)(C)NC(=O)N1CCc2c(-c3cccc(OC(F)(F)F)c3)ccc(C(=O)NCc3cn4ccsc4n3)c2C1 [Example 74, N^2-(tert-butyl)-N^8-(imidazo[2,1-b]thiazol-6-ylmethyl)-5-(3-(trifluoromethoxy)phenyl)-3,4-dihydroisoquinoline-2,8(1H)-dicarboxamide]	1540 nM
CC(C)(C)NC(=O)N1CCc2c(-c3cccc(OC(F)(F)F)c3)ccc(C(=O)NCc3nnc4n3CCC4)c2C1 [Example 75, N^2-(tert-butyl)-N^8-((6,7-dihydro-5H-pyrrolo[2,1-c][1,2,4]triazol-3-yl)methyl)-5-(3-(trifluoromethoxy)phenyl)-3,4-dihydroisoquinoline-2,8(1H)-dicarboxamide]	2490 nM
CC(C)(C)NC(=O)N1CCc2c(-c3cccc(OC(F)(F)F)c3)ccc(C(=O)NCc3cc(-c4ccccn4)no3)c2C1 [Example 80, N^2-(tert-butyl)-N^8-((3-(pyridin-2-yl)isoxazol-5-yl)methyl)-5-(3-(trifluoromethoxy)phenyl)-3,4-dihydroisoquinoline-2,8(1H)-dicarboxamide]	524 nM

Continued, values first:

IC50	SMILES
2580 nM	CC(C)(C)NC(=O)N1CCc2c(-c3cccc(OC(F)(F)F)c3)ccc(C(=O)NCCn3ccnn3)c2C1 [Example 76, N^8-(2-(1H-1,2,3-triazol-1-yl)ethyl)-N^2-(tert-butyl)-5-(3-(trifluoromethoxy)phenyl)-3,4-dihydroisoquinoline-2,8(1H)-dicarboxamide]
867 nM	CC(CNC(=O)c1ccc(-c2cccc(OC(F)(F)F)c2)c2c1CN(C(=O)NC(C)(C)C)CC2)c1cnco1 (stereo not shown) [Example 77, N^2-(tert-butyl)-N^8-(2-(oxazol-5-yl)propyl)-5-(3-(trifluoromethoxy)phenyl)-3,4-dihydroisoquinoline-2,8(1H)-dicarboxamide]
1180 nM	CC(CNC(=O)c1ccc(-c2cccc(OC(F)(F)F)c2)c2c1CN(C(=O)NC(C)(C)C)CC2)c1cccnc1 (stereo not shown) [Example 78, N^2-(tert-butyl)-N^8-(2-(pyridin-3-yl)propyl)-5-(3-(trifluoromethoxy)phenyl)-3,4-dihydroisoquinoline-2,8(1H)-dicarboxamide]
149 nM	CC(C)(C)NC(=O)N1CCc2c(-c3cccc(OC(F)(F)F)c3)ccc(C(=O)NCc3cccc4ccnn34)c2C1 [Example 79, N^2-(tert-butyl)-N^8-(pyrazolo[1,5-a]pyridin-7-ylmethyl)-5-(3-(trifluoromethoxy)phenyl)-3,4-dihydroisoquinoline-2,8(1H)-dicarboxamide]
370 nM	CC(C)(C)NC(=O)N1CCc2c(-c3cccc(OC(F)(F)F)c3)ccc(C(=O)NCc3cnn4ccccc34)c2C1 [Example 81, N^2-(tert-butyl)-N^8-(pyrazolo[1,5-a]pyridin-3-ylmethyl)-5-(3-(trifluoromethoxy)phenyl)-3,4-dihydroisoquinoline-2,8(1H)-dicarboxamide]
